Measurements as given in BindingDB's records for doi:10.7270/Q2QN6575 (Nmmlsc, 2011).

What follows are molecules tested against T1, Citrate synthase, peroxisomal [1-24] (Saccharomyces cerevisiae, UniProt P08679) (assay: CIT2-GFP expression modulators in yeast, SAR follow-up, flow cytometry, cherry pick 3, dose response (AID 488825)). Details: not given.
T1 construct: 1-24
T1 sequence (P08679 1-24): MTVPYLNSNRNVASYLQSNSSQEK

Work on `Cc1nc(Nc2ccc(Br)cc2Br)c([N+](=O)[O-])c(=O)[nH]1` [6-[[2,4-bis(bromanyl)phenyl]amino]-2-methyl-5-nitro-1H-pyrimidin-4-one] yielded an EC50 of 74.1 µM.

Same assay, conditions: inactive by the depositor's call

First: COc1ccccc1-c1cc(C(F)(F)F)nc(S(=O)(=O)CCCC(=O)O)n1 [4-[4-(2-methoxyphenyl)-6-(trifluoromethyl)pyrimidin-2-yl]sulfonylbutanoic acid]
Second: CCC(C)Nc1nc(N)c([N+](=O)[O-])c(Nc2ccccc2OC)n1 (stereo unspecified) [SMR000434817]
The EC50 of the first is 2.2-fold lower: 58 µM for the first, 128 µM for the second. The first is the more potent here.

First: O=C(O)c1ccc2cccc(O)c2n1 [8-oxidanylquinoline-2-carboxylic acid]
Second: Oc1c(Cl)cc(Cl)c2cccnc12 [AS-229]
The EC50 of the first is 66-fold lower: 300 µM for the first, 19800 µM for the second.

In the case of `Cc1ccc(C(=O)Nc2nc(-c3ccccn3)cs2)o1` [5-methyl-N-[4-(2-pyridinyl)-2-thiazolyl]-2-furancarboxamide], the EC50 is reported as 3680 µM.
